# Counter-ions that a name gives are not always drawn.
# What was measured:
# rat subcutaneous tissue = test: Tissue biocompatibility study of DMF ISFI system (physical inspection for inflammation); assay type: in vivo, rats; settings: SC injection; visual observation
# Description: Tissue biocompatibility study of DMF ISFI system was performed. Mice were separated into three groups i.e., positive control group, test group, negative control group and each group consist of three animals to assess the DMF and ISFI biocompatibility. All of the three groups received different drugs like first group received phosphate buffer of pH 7.4 dispersed DMF, test group was given both drug DMF with the ISFI and the last group were given only ISFI. For all physical signs of inflammation, all the animals were visually observed. Produces responses in experimental animals were graded as 0 for normal, + for mild symptoms, ++ for moderate and +++ used for the severe symptoms. After injecting the drugs in animals, one mouse per group was sacrificed at the interval of 3rd day, 7th day and 14th days. The adjacent tissues were excised and fixed in 10% formalin tamped with phosphate buffer. The tissue was under the observation of optical microscope after the hematoxylin and eosin staining process for the changes in acute inflammatory responses, fibrosis and foreign body reaction. (Anderson and Langone, 1999 and Park and Park, 1999).
# [1] = In vivo drug release study (plasma DMF by HPLC after SC injection); design: species or system Albino Wistar rats; settings: rats, S.C.
# Description: In vivo drug release study was also performed. Albino Wistar rats (275-300 g) were used in the study. Sterile polypropylene cages with paddy husk were used for the housing of experimental animals. Standard food pellets were given to the animals with water ad libitum. Uses of experimental animal were approved by the IAEC (JSSCP, S. S. Nagar, Mysore, India Code No: 132/2013) and for all the purpose of animal welfare the CPCSEA guidelines were followed.
# The experimental animals were separated into groups of three and each group consisted of three animals. […] For injecting 0.5 mL of injectable gel, a syringe of 1 mL with the needle of 26-gauge was used.
# For the In-vivo detection of Dimethyl Fumarate, an aliquot of blood was drawn from retro orbital sinus of each rat at specified blood collection times. 1.5 mL aliquot of blood from retro orbital sinus was collected in an EDTA coated Eppendorf tube. The tubes were centrifuged at 4° C. and 8000 rpm for 10 min to collect plasma. Plasma was separated into a separate eppendorf tube. Until the screening or assay of plasma samples by using HPLC, the sample was stored at −20° C.
# All animals remained in good health throughout the acclimatization and study periods. The cumulative (±SD) plasma concentrations of DMF at the times of sample collection after SC are plotted in FIG. 8. Drug concentration was determined by using HPLC method. […]
smiles,measurement,setting,value
"COC(=O)/C=C/C(=O)OC [DMF, Dimethyl fumarate]",inflammatory reaction at physical inspection,rat subcutaneous tissue,highest inflammation
same,plasma concentration (final level),"[1]; pure drug 1 mg/0.2 mL, group III",non-detectable quantities
same,time after which plasma concentration falls,"[1]; pure drug 2 mg/0.2 mL, Group I",150 h
